Assay [1] in a line: Cytotoxicity against human U373 cells after 72 hrs by MTT colorimetric assay. The following applies: U373 MG. The class given is functional, cell-based, U-373MG ATCC.
Another assay relates to SK-MEL. Briefly: Cytotoxicity against human SK-MEL cells after 72 hrs by MTT colorimetric assay. The format is functional, cell-based. For orientation: Tetrazolium assays rely on reduction of a dye to a coloured formazan, in cell work by metabolically active cells.
Assay [2] can be described thus: Cytotoxicity against human Hs683 cells after 72 hrs by MTT colorimetric assay. The format is functional, cell-based. As to conditions: Hs 683, 72 h.
The subject of another assay is A549. Briefly: Cytotoxicity against human A549 cells after 72 hrs by MTT colorimetric assay. The format is functional, cell-based. As to conditions: A549, 72 h.
The next assay has as its system B16-F10. Briefly: Cytotoxicity against mouse B16F10 cells after 72 hrs by MTT colorimetric assay. The format is functional, cell-based. As to conditions: B16-F10, 72 h.
Assay [3] in a line: Cytotoxicity against human OE21 cells after 72 hrs by MTT colorimetric assay. As to conditions: OE21, 72 h. The class given is functional, cell-based.

By IC50 is commonly meant the concentration that gives 50% inhibition. Lower therefore signals greater potency in that assay.

Counter-ions that a name gives are not always drawn.

For `COc1c2c(cc3c1OCO3)[C@]13C=C[C@H](OC)C[C@H]1N(C2)C[C@@H]3O` [AMBELLINE], the IC50 is above 10 µM in assay [1]; above 10 µM in the assay with SK-MEL; above 10 µM in assay [2]; above 10 µM in the assay on A549; above 10 µM in the assay on B16-F10; 86 µM in assay [3].
Turning to `O[C@@H]1CC=C2CCN3Cc4cc5c(cc4[C@H]1[C@@H]23)OCO5` [CARANINE], the 50% inhibitory concentration (IC50) (in assay [1]; in the assay with SK-MEL; in assay [2]; in the assay on A549; in the assay with B16-F10; in assay [3]) was above 10 µM each time.
For the compound `COc1cc2c(cc1OC)[C@@H]1[C@H](O)[C@@H](OC)C=C3CCN(C2)[C@H]31` [GALANTHINE], the IC50 (in assay [1]; in the assay on SK-MEL; in assay [2]; in the assay on A549; in the assay with B16-F10; in assay [3]) was above 10 µM throughout.
Take `O[C@H]1[C@H]2c3cc4c(cc3CN3CCC(=C[C@@H]1O)[C@H]23)OCO4` [LYCORINE]: the IC50 in assay [1] turned out to be 7.6 µM; in the assay with SK-MEL, 8.4 µM; in assay [2], 6.9 µM; in the assay with A549, 4.2 µM; in assay [3] it was 4.5 µM.
Take `CC(O)CC(=O)O[C@H]1C[C@H]2CCN(C)[C@H]2[C@@H]2c3cc4c(cc3C(=O)O[C@H]21)OCO4` (stereo partly specified) [NOBILISITINE B]: the IC50 (in assay [1]; in the assay with SK-MEL; in assay [2]; in the assay with A549; with B16-F10; in assay [3]) was above 10 µM throughout.
For the compound `[O-]c1cc2c3c(c1)c1cc4c(cc1c[n+]3CC2)OCO4` [UNGEREMINE], the IC50 in assay [1] is 83 µM; with SK-MEL, above 10 µM; in assay [2], above 10 µM; in the assay on A549, above 10 µM; with B16-F10 it was above 10 µM; in assay [3], above 10 µM.
Turning to `COc1cc2c(cc1O)[C@@H]1[C@H](O)[C@@H](O)C=C3CCN(C2)[C@H]31` [PSEUDOLYCORINE], the IC50 in assay [1] is 7.8 µM; in the assay on SK-MEL, above 10 µM; in assay [2] it was 7.9 µM; in the assay on A549, 7.4 µM; in assay [3] it was 7.9 µM.
With `CO[C@@H]1C=C[C@@]23c4cc5c(cc4CN(C[C@@H]2O)[C@H]3C1)OCO5` [(+)-HAEMANTHAMINE], the IC50 is 7.7 µM in assay [1]; 8.5 µM in the assay with SK-MEL; 7 µM in assay [2]; 4.5 µM in the assay on A549; 6.8 µM in the assay with B16-F10; 6.8 µM in assay [3].
Consider `CO[C@@H]1C=C[C@@]23c4cc5c(cc4CO[C@]2(O)CN(C)[C@H]3C1)OCO5` [TAZETTINE], for which the IC50 in assay [1] was above 10 µM; in the assay on SK-MEL, above 10 µM; in assay [2], above 10 µM; with A549 it was above 10 µM; with B16-F10, above 10 µM; in assay [3] it was 78 µM.
As for `COC1C=C[C@@]23CCN(Cc4cc5c(cc42)OCO5)[C@@H]3C1` (stereo partly specified), the IC50 in assay [1] is above 10 µM; in the assay with SK-MEL, above 10 µM; in assay [2] it was above 10 µM; with A549, above 10 µM; with B16-F10, above 10 µM; in assay [3], 97 µM.
Take `CN1CC[C@@H]2C[C@H](O)[C@@H]3OC(=O)c4cc5c(cc4[C@H]3[C@@H]21)OCO5` [CLIVONINE HYDROCHLORIDE]: the IC50 (in assay [1]; with SK-MEL; in assay [2]; in the assay on A549; in the assay with B16-F10; in assay [3]) was above 10 µM in each case.
As for `COC1=C[C@@H]2CCN3Cc4cc5c(cc4[C@@H]([C@H]23)[C@@H]1O)OCO5` [AMARBELLISINE], the IC50 amounted to 7.2 µM in assay [1], 8.3 µM in the assay on SK-MEL, 8.2 µM in assay [2] and 6.7 µM in assay [3].
For `COc1c2c(cc3c1OCO3)[C@@]13CCN(C2)[C@@H]1CC=C[C@H]3O` [BUPHANAMINE], the IC50 (in assay [1]; with SK-MEL; in assay [2]; in the assay with A549; in the assay on B16-F10; in assay [3]) was above 10 µM throughout.
For `COc1cc2c(cc1O)CN1CCC3=CC[C@@H](O)[C@@H]2[C@@H]31` [NORPLUVINE], the IC50 (in assay [1]; in the assay with SK-MEL; in assay [2]; in the assay with A549; with B16-F10; in assay [3]) was above 10 µM each time.
Take `CO[C@@H]1C=C[C@@]23c4cc5c(cc4[C@@H](O)N(C[C@H]2O)[C@H]3C1)OCO5` [HAEMANTHIDINE]: the IC50 in assay [1] was found to be 3.8 µM; with SK-MEL, 4.2 µM; in assay [2], 4.3 µM; in the assay with A549 it was 4 µM; in the assay with B16-F10, 3.1 µM; in assay [3], 3.7 µM.

(Values after ChEMBL document CHEMBL1177735, “Amaryllidaceae alkaloids belonging to different structural subgroups display activity against apoptosis-resistant cancer cells” (J Nat Prod, 2010).)
